Where “and” joins values, the source holds several entries; their conditions need not be identical. Equal values may be shown once.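 Test compounds were applied to cells in 96-well plates for 48 hours at 5 doses. GI50 is the concentration that inhibits growth by half. TGI denotes the concentration required for complete inhibition of growth.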
Assays:
Assay in all cases: NCI tumour cell line growth inhibition, 48 h
[1] = tested on: KM20L2 colon
[2] = tested on: XF 498 CNS
[3] = tested on: DMS 273 small cell lung
[4] = tested on: M19-MEL melanoma
[5] = tested on: MDA-N
[6] = tested on: SNB-78 CNS
[7] = tested on: SN12K1 renal
[8] = tested on: DLD-1 colon
[9] = tested on: DMS 114 small cell lung
[10] = tested on: RXF-631 renal

Compound	TGI [1]	TGI [2]	TGI [3]	TGI [4]	TGI [5]	TGI [6] [µM]	TGI [8]	TGI [9]	TGI [10] [µM]	further results
S=c1nc[nH]c2nc[nH]c12	691 µM	163 µM	565 µM	> 734 µM	636 µM and > 750 µM	670	> 750 µM	385 µM	–	GI50 [5]: 7.85 µM; TGI [7]: 527 µM
O=C(c1ccco1)c1ccccc1C(=O)c1ccco1	> 100 µM	> 100 µM	> 100 µM	> 100 µM	–	> 100	> 100 µM	> 100 µM	> 100	–
CSc1c(S(C)=O)[nH]c2cc(Br)cc(Br)c12 (configuration not stated)	–	–	35.1 µM	75.4 µM	–	57	51.9 µM	–	–	–
CC(C)[C@](O)(C(=O)OCC1=CC[N+]2([O-])CC[C@@H](O)[C@@H]12)[C@H](C)O (some centres not stated)	> 10000 µM	–	> 10000 µM	> 10000 µM	> 10000 µM	> 10000	> 10000 µM	–	–	TGI [7]: > 10000 µM
CN(C)CCNC(=O)c1cccc2ccc(-c3cccnc3)nc12	–	–	13.1 µM	16.9 µM	–	72.4	60.4 µM	18.6 µM	23.1	–
Cc1cc2c(=O)cc(-c3ccc(C(F)(F)F)cc3)oc2c(C(=O)O)c1C	> 100 µM	> 100 µM	> 100 µM	> 100 µM	–	> 100	> 100 µM	> 100 µM	> 100	–
COc1cc[c]([Sb]([Br])([CH]=C(C)C)([CH]=C(C)C)[CH]=C(C)C)cc1	> 100 µM	–	23.3 µM	> 100 µM	–	–	> 100 µM	20.8 µM	–	GI50 [1]: 5.06 µM; GI50 [3]: 3.3 µM; GI50 [4]: 3.1 µM; GI50 [8]: 24.1 µM; GI50 [9]: 3.02 µM
[C-]#[O+].[C-]#[O+].[Ir].[O-]c1ccc2ccccc2c1N=Nc1ccccc1	–	5.18 µM	–	21.2 µM	18.8 µM	53	12.4 µM	8.68 µM	–	GI50 [2]: 2.14 µM; GI50 [4]: 3.24 µM; GI50 [6]: 24.3 µM; GI50 [8]: 3.3 µM; GI50 [9]: 2.68 µM
CCOC(=O)C1(Br)C(c2ccccc2)NC(=O)N(C2OC(COC(=O)c3ccccc3)C(OC(=O)c3ccccc3)C2OC(=O)c2ccccc2)C1(C)Br (configuration not stated)	> 100 µM	–	> 100 µM	> 100 µM	–	–	> 100 µM	49.6 µM	50	–
CCOC(=O)C12CCSC1C1(C#N)C(C#N)=CC2(N=P(c2ccccc2)(c2ccccc2)c2ccccc2)n2c(=O)n(-c3ccccc3)c(=O)n21 (configuration not stated)	> 100 µM	78.3 µM	–	98.5 µM	–	> 100	> 100 µM	96.6 µM	> 100	–
COc1ccc(C(=O)Nc2ccc(S(=O)(=O)NCC(=O)O)cc2)cc1	> 100 µM	> 100 µM	> 100 µM	> 100 µM	–	–	> 100 µM	–	> 100	–
Cc1ccc(/C=N/NS(=O)(=O)c2ccccc2)cc1	> 100 µM	> 100 µM	> 100 µM	–	–	> 100	> 100 µM	> 100 µM	> 100	–
CNS(=O)(=O)c1ccccc1C(=N)c1ccccc1	–	–	–	–	> 100 µM	–	–	–	–	–
C/C(=C1/N=C(c2ccccc2)OC1=O)c1ccc(C)cc1	–	–	–	–	> 100 µM	–	–	–	–	–
N.N.N.N.N.N#N.[Cl-].[Os+7]	> 100 µM	–	> 100 µM	–	–	> 100	> 100 µM	–	–	GI50 [1]: > 100 µM; GI50 [3]: > 100 µM; GI50 [6]: > 100 µM; GI50 [8]: > 100 µM
NCCn1ccc(NC(c2ccccc2)(c2ccccc2)c2ccccc2)nc1=O	32.2 µM	26.1 µM	–	42.2 µM	–	42.5	> 100 µM	38.6 µM	–	–
COc1cc([N+](=O)[O-])c(S(=O)(=O)O)cc1N	–	–	–	–	> 100 µM	–	–	–	–	–
O=C(c1ccccn1)c1nc(-c2ccc(Cl)c(Cl)c2)nc2ccc(Cl)cc12	> 100 µM	55.3 µM	> 100 µM	> 100 µM	–	> 100	> 100 µM	> 100 µM	–	–
CC1(C(=O)NCCN(CCNC(=O)C2(C)CC3(C)CC(C)(C2)C(=O)NC3=O)CCNC(=O)C2(C)CC3(C)CC(C)(C2)C(=O)NC3=O)CC2(C)CC(C)(C1)C(=O)NC2=O (configuration not stated)	> 100 µM	> 100 µM	> 100 µM	> 100 µM	–	> 100	–	> 100 µM	–	–
O=C(N[C@@H]1C=CCC[C@@H]1c1ccccc1)OCc1ccccc1	40.6 µM	35.9 µM	32.4 µM	45.1 µM	–	93	> 85.6 µM	45.1 µM	–	–

Compound	TGI [1]	TGI [2]	TGI [3]	TGI [4]	TGI [5]	TGI [6] [µM]	TGI [8]	TGI [9]	TGI [10] [µM]	further results
Cc1cccc(Cl)c1NC(N)=S	> 100 µM	–	> 100 µM	> 100 µM	–	> 100	> 100 µM	82 µM	> 100	–
O=c1c2cc(Br)ccc2nc(-c2ccccc2)n1NCC1(O)OCC(O)C(O)C1O (configuration not stated)	> 100 µM	–	> 100 µM	> 100 µM	–	> 100	–	> 100 µM	–	–
Clc1ccccc1-c1nc(-c2ccncc2)no1	–	–	–	–	> 100 µM	–	–	–	–	–
CN(C)c1ccc(/C=C/c2ccnc3ccc4ccccc4c23)cc1	–	–	–	–	> 100 µM	–	–	–	–	–
CCC(C(=O)c1cccs1)C(O)(C(F)(F)F)C(F)(F)F (configuration not stated)	–	–	–	–	> 100 µM	–	–	–	–	–
c1ccc(CCCNc2nnnc3ccccc23)cc1	–	–	–	–	> 100 µM	–	–	–	–	–
COc1ccc(OC)c(/C=C/C(=O)C(C)(C)C)c1	50.3 µM	–	50.9 µM	34.9 µM	–	–	48.4 µM	32.1 µM	85.1	–
CCCCCCCCCCCCC/C=C1\C[C@H](O)COC1=O	31.7 µM	30.5 µM	28 µM	33.6 µM	–	33.9	32 µM	–	–	–
O=C(O)c1c([N+](=O)[O-])cc(C(F)(F)F)cc1[N+](=O)[O-]	> 100 µM	> 100 µM	> 100 µM	> 100 µM	–	> 100	–	–	> 100	–
O=C1c2ccccc2C(=O)c2c(NC(=O)C(Cl)CCl)cccc21 (configuration not stated)	–	–	–	–	24.6 µM	–	–	–	–	–
Nc1ccc(-c2ccc(Nc3cc(S(=O)(=O)O)c(N)c4c3C(=O)c3ccccc3C4=O)cc2)c(S(=O)(=O)O)c1	–	–	–	–	> 100 µM	–	–	–	–	–
CCOc1ccccc1NC(=O)C(=O)C(C(=O)c1ccc2ccccc2c1)C1OC(=O)c2ccccc21 (configuration not stated)	77 µM	–	31.7 µM	–	–	75.8	33.4 µM	33.6 µM	22.4	–
CC(N)(Cc1c[nH]c2ccccc12)C(=O)O (configuration not stated)	–	–	–	–	> 100 µM	–	–	–	–	–
COc1ccc2[nH]c3c(C)c4cc[n+](C)cc4c(C)c3c2c1	34.2 µM [middle of 4 runs]	–	–	3.69 µM and 2.48 µM and 2.89 µM	> 100 µM and 84.9 µM and 63 µM	–	–	2.52 µM and 1.72 µM and 1.56 µM	–	GI50 [1]: 1.68 µM and 1.35 µM; GI50 [3]: 0.502 µM and 0.189 µM; GI50 [4]: 0.327 µM; GI50 [5]: 9.89 µM and 2.19 µM and 14.7 µM; GI50 [6]: 0.478 µM and 0.243 µM; GI50 [7]: 0.146 µM; TGI [7]: 2.96 µM and 2.75 µM and 1.85 µM; GI50 [8]: 0.889 µM and 0.835 µM; GI50 [9]: 0.104 µM
CN(C)CCNC(=O)c1cccc2cc([N+](=O)[O-])ccc12	0.722 µM	1.04 µM	0.722 µM	0.902 µM	6.23 µM	1.61	1.55 µM	0.743 µM	–	–
O=C1NC2(CCCC2)/C(=N\O)C12CCCC2	–	> 100 µM	> 100 µM	> 100 µM	–	> 100	> 100 µM	> 100 µM	–	–
COc1ccc2nc3ccccc3c(NCCCCCN(CCCl)CCCl)c2c1	1.02 µM	0.0717 µM	0.343 µM	–	–	2.96	0.793 µM	–	–	–
Clc1ccccc1C1N2CCCCC2[C@@H]2c3[nH]c4ccccc4c3CCN12 (some centres not stated)	34.1 µM	35.4 µM	> 100 µM	29.2 µM	–	61.1	37.5 µM	41.6 µM	–	–
COC1=C(C)C(=O)C2=C(C1=O)C(CO)N1C(C#N)C3CC4C(C1C2N1CCOC41)N3C (configuration not stated)	0.83 µM and 0.104 µM	0.0183 µM and 0.0285 µM	0.0722 µM and 0.0676 µM	0.177 µM and 0.11 µM	0.0156 µM and < 0.0374 µM	–	0.836 µM and 5.2 µM	0.0348 µM and 0.0203 µM	3.4	GI50 [1]: 0.0261 µM; GI50 [2]: 0.00607 µM; GI50 [4]: 0.0319 µM; TGI [7]: 17.4 µM; GI50 [9]: 0.0141 µM
